From US7759321B2, “Compounds for the treatment of pain” (Cambridge Biotechnology Ltd, priority 2003, dated 2010)

Key:
[1] = system: normal physiological nociception; assay: Normal physiological nociception after administration; assay type: in vivo
Text: Compounds of formula (I) are believed to be effective in inhibiting pain perception in mammals suffering from pain, in particular neuropathic and inflammatory pain, even when administered at doses expected to give plasma concentrations well below those known to activate adenosine receptors. […] Therefore, compounds of formula (I) can treat pain (particularly neuropathic and inflammatory pain) without causing the significant side effects associated with administration of other adenosine receptor agonists, and also without reducing normal sensory perception.

[2] = system: static allodynia in a model of neuropathic pain; assay: Static allodynia in a model of neuropathic pain (paw withdrawal threshold); assay type: in vivo
Protocol: Spongosine and gabapentin were administered (p.o.) in different proportions as indicated in the drawing. The total dose administered is shown on the horizontal axis, and the paw withdrawal threshold (PWT) on the vertical axis. The predicted anti-hyperalgesic effect (derived from the dose response curves obtained with each agent alone) if the effects of the two compounds are additive is shown (●). The observed effects are indicated by (▪).

adenosine receptors = adenosine receptors (Rattus norvegicus, UniProt P30543); assay: EC50 at adenosine receptors measured at pH 7.4; assay type: biochemical
Chain of adenosine receptors (P30543 whole entry): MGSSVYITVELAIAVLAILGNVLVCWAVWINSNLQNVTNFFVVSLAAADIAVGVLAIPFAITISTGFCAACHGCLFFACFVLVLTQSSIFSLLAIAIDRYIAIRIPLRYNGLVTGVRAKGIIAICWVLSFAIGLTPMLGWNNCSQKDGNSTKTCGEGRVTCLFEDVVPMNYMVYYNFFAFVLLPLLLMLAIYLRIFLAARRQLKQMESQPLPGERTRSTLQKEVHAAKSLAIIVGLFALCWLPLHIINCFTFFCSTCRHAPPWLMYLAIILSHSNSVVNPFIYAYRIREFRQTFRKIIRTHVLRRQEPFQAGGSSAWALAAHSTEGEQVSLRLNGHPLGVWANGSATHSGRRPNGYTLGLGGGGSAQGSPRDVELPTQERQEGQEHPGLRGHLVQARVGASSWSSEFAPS
Text: For the avoidance of doubt, the EC50 value of a compound is defined herein as the concentration of the compound that provokes a receptor response halfway between the baseline receptor response and the maximum receptor response (as determined, for example, using a dose-response curve).
The EC50 value should be determined under standard conditions (balanced salt solutions buffered to pH 7.4). […] The EC50 could also be determined in vivo by measuring adenosine receptor mediated responses in a normal healthy animal, or even in a tissue perfused under normal conditions (i.e. oxygenated blood, or oxygenated isotonic media, also buffered at pH 7.4) in a normal healthy animal.

[3] = Plasma concentration over time after administration; assay type: in vivo, rat
Protocol: It can be seen that the plasma concentration remains above 2% of the EC50 value for more than 3 hours.

rat A2A receptor = rat A2A receptor (Rattus norvegicus, UniProt P30543); conditions: read-out: EC50 for stimulation of the rat A2A receptor; cited from earlier work
Chain of rat A2A receptor (P30543 whole entry): as above

rats = conditions: cited from earlier work
[4] = system: chronic constriction injury of the rat sciatic nerve; assay: Chronic constriction injury model of neuropathic pain, thermal hyperalgesia; assay type: in vivo; conditions: 0.624 mg/kg p.o.
Text: After approximately two weeks the rats developed thermal hyperalgesia in the operated leg as judged by the difference in paw withdrawal latencies of the right and left paws.

[5] = system: carrageenan (CGN) induced thermal hyperalgesia; assay: Carrageenan induced thermal hyperalgesia (CITH); assay type: in vivo; conditions: 0.624 mg/kg p.o.
Protocol: Carrageenan (2%, 10 microlitres) was administered into the right hind paw. A heat source was placed close to the treated and untreated hind paws, and the difference in the paw withdrawal latencies is shown. Spongosine was administered at the same time as carrageenan.

normal rats = assay: Blood pressure and heart rate by implantable radiotelemetry; assay type: in vivo, rat; conditions: 0.624 mg/kg p.o.
Text: An implantable radiotelemetry device was placed in the abdominal cavity of 6 rats per group. The pressure catheter of the device was inserted in the abdominal aorta and two electrodes tunnelised under the skin in a lead II position (left side of abdominal cavity/right shoulder). Individual rats were placed in their own cage on a radioreceptor (DSI) for data acquisition. A: blood pressure; B: heart rate.

SMILES | Effect on normal physiological nociception [1] | Effect on static allodynia (paw withdrawal threshold, PWT) ([2]; 1.2 mg/kg p.o., in the presence and absence of naloxone (1 mg/kg s.c.)) | Effect on static allodynia (paw withdrawal threshold, PWT) ([2]; p.o., Example 6) | EC50 (adenosine receptors) | Blood pressure effect if the peak plasma concentration reaches the EC50 value ([3]; last for hours) | Time plasma concentration remains above 2% of the EC50 value ([3]; rat, 0.6 mg/kg) | EC50 (rat A2A receptor) | Biological activities in rats (rats) | Effect on thermal hyperalgesia caused by chronic constriction injury (difference in paw withdrawal latencies) [4] | Efficacy compared with carbamazepine (CBZ, 100 mg/kg s.c.) in chronic constriction injury model [4] | Efficacy compared with indomethacin (3 mg/kg p.o.) in carrageenan induced thermal hyperalgesia [5] | Effect on carrageenan induced thermal hyperalgesia (difference in paw withdrawal latencies) ([5]; given at the same time as carrageenan (2%, 10 microlitres, right hind paw)) | Effect on blood pressure (normal rats) | Effect on heart rate (normal rats)
COc1nc(N)c2ncn([C@@H]3O[C@H](CO)[C@@H](O)[C@H]3O)c2n1 [Spongosine, 2-methoxyadenosine] | no effect | inhibits static allodynia | inhibit static allodynia | 3000 nM | profound reductions in blood pressure | more than 3 hours | 3000 nM | muscle relaxant, hypothermic, hypotensive, and anti-inflammatory activity | inhibits thermal hyperalgesia | as, or more, effective than carbamazepine | as effective as indomethacin | inhibits carrageenan (CGN) induced thermal hyperalgesia | no significant effect | no significant effect
NCC1(CC(=O)O)CCCCC1 [gabapentin, reference compound] |  |  | inhibit static allodynia |  |  |  |  |  |  |  |  |  |  | 
